This passage reports EC50 results from publication PMC3264756 (2011).

pEC50: −log10 of the molar value.

This test has as its target acetyl-CoA carboxylase (TbACC) (Trypanosoma brucei, UniProt Q57YR7). It is filed as biochemical.

In general, pEC50 refers to the negative decadic logarithm of the EC50, by convention in mol/L. High values mean a small EC50, low ones a large EC50. `CC(Oc1ccc(Oc2ncc(C(F)(F)F)cc2Cl)cc1)C(=O)O` (stereo not shown) [haloxyfop] had a pEC50 of 4.17.
